Legend:
[1] = test system: Phaeosphaeria Nodorum (Septoria nodorum); test: Phaeosphaeria nodorum (Septoria nodorum) / wheat / leaf disc preventative (Glume Blotch); assay type: in vivo; details: Parastagonospora nodorum, foliar, 200 ppm in the formulation, compared to untreated, 5-7 days after application, read-out: disease control
Protocol: Phaeosphaeria Nodorum (Septoria nodorum)/Wheat/Leaf Disc Preventative (Glume Blotch) Wheat leaf segments cv. Kanzler are placed on agar in a multiwell plate (24-well format) and sprayed with the formulated test compound diluted in water. The leaf disks are inoculated with a spore suspension of the fungus 2 days after application. The inoculated test leaf disks are incubated at 20° C. and 75% rh under a light regime of 12 h light/12 h darkness in a climate cabinet and the activity of a compound is assessed as percent disease control compared to untreated when an appropriate level of disease damage appears in untreated check leaf disks (5-7 days after application).

[2] = test system: Botryotinia fuckeliana (Botrytis cinerea); test: Botryotinia fuckeliana (Botrytis cinerea) / liquid culture (Gray Mould); assay type: cell-based; details: 72 h, 200 ppm in the formulation, inhibition of growth determined photometrically 3-4 days after application, read-out: disease control
Protocol: (§1) Botryotinia fuckeliana (Botrytis cinerea)/Liquid Culture (Gray Mould) Conidia of the fungus from cryogenic storage are directly mixed into nutrient broth (Vogels broth). After placing a (DMSO) solution of test compound into a microtiter plate (96-well format), the nutrient broth containing the fungal spores is added. The test plates are incubated at 24° C. and the inhibition of growth is determined photometrically 3-4 days after application.

[3] = test system: Mycosphaerella Raminicola (Septoria tritici); test: Mycosphaerella Raminicola (Septoria tritici) / liquid culture (Septoria Blotch); assay type: cell-based; details: 200 ppm in the formulation, inhibition of growth determined photometrically 4 to 5 days after application, read-out: disease control
Protocol: as §1, with “Mycosphaerella Raminicola (Septoria tritici)/Liquid” for “Botryotinia fuckeliana (Botrytis cinerea)/Liquid”, “(Septoria Blotch)” for “(Gray Mould)”, “(PDB potato dextrose” for “(Vogels”, “4 to 5” for “3-4”

[4] = test system: Monocraphella nivalis (Microdochium nivale); test: Monocraphella nivalis (Microdochium nivale) / liquid culture (Foot Rot Cereals); assay type: cell-based; details: 96 h, 200 ppm in the formulation, inhibition of growth determined photometrically 4-5 days after application, read-out: disease control
Protocol: as §1, with “Monocraphella nivalis (Microdochium nivale)/Liquid” for “Botryotinia fuckeliana (Botrytis cinerea)/Liquid”, “(Foot Rot Cereals)” for “(Gray Mould)”, “(PDB potato dextrose” for “(Vogels”, “4-5” for “3-4”

[5] = test system: Puccinia recondita f. Sp. Tritici; test: Puccinia recondita f. sp. tritici / wheat / leaf disc preventative (Brown Rust); assay type: in vivo; details: foliar, 168 h, 200 ppm in the formulation, compared to untreated, 7-9 days after application, read-out: disease control
[6] = test system: Mycosphaerella arachidis (Cercospora arachidicola); test: Mycosphaerella arachidis (Cercospora arachidicola) / liquid culture (Early Leaf Spot); assay type: cell-based; details: 96 h, 200 ppm in the formulation, inhibition of growth determined photometrically 4-5 days after application, read-out: disease control
Protocol: as §1, with “Mycosphaerella arachidis (Cercospora arachidicola)/Liquid” for “Botryotinia fuckeliana (Botrytis cinerea)/Liquid”, “(Early Leaf Spot)” for “(Gray Mould)”, “(PDB potato dextrose” for “(Vogels”, “4-5” for “3-4”

[7] = test system: Magnaporthe risea (Pyricularia Oryzae); test: whole plant or invertebrate; assay type: in vivo; details: foliar, read-out: disease control
[8] = test system: Glomerella lacenarium (Colletotrichum lacenarium); test: Glomerella lacenarium (Colletotrichum lacenarium) / liquid culture (Anthracnose); assay type: cell-based; details: 200 ppm in the formulation, inhibition of growth measured photometrically 3-4 days after application, read-out: disease control
Protocol: as §1, with “Glomerella lacenarium (Colletotrichum lacenarium)/Liquid” for “Botryotinia fuckeliana (Botrytis cinerea)/Liquid”, “(Anthracnose)” for “(Gray Mould)”, “(PDB potato dextrose” for “(Vogels”, “measured” for “determined”

COc1ccnc(C(=O)N[C@@H](C)C(=O)OC(C)C(C)(C)c2ccccc2)c1O (stereo partly drawn) [I.a.001, (1,2-dimethyl-2-phenyl-propyl) (2S)-2-[(3-hydroxy-4-methoxy-pyridine-2-carbonyl)amino]propanoate]
≥ 80%: pest or weed control at 200 ppm [1] | inhibition of growth at 200 ppm [2] | inhibition of growth at 200 ppm [3] | inhibition of growth at 200 ppm [4] | pest or weed control at 200 ppm [5] | inhibition of growth at 200 ppm [6]

COc1ccnc(C(=O)N[C@@H](C)C(=O)OC(C)C2(c3ccccc3)CC2)c1O (stereo partly drawn) [I.a.006, 1-(1-phenylcyclopropyl)ethyl (2S)-2-[(3-hydroxy-4-methoxy-pyridine-2-carbonyl)amino]propanoate]
≥ 80%: pest or weed control at 200 ppm [7] | inhibition of growth at 200 ppm [2] | inhibition of growth at 200 ppm [3] | inhibition of growth at 200 ppm [4] | pest or weed control at 200 ppm [5] | inhibition of growth at 200 ppm [6]

COc1ccnc(C(=O)N[C@@H](C)C(=O)OC(C)C2(c3cccc(Br)c3)CC2)c1O (stereo partly drawn) [I.d.006, 1-[1-(3-bromophenyl)-cyclopropyl]ethyl (2S)-2-[(3-hydroxy-4-methoxy-pyridine-2-carbonyl)amino]propanoate]
≥ 80%: inhibition of growth at 200 ppm [2] | inhibition of growth at 200 ppm [3] | inhibition of growth at 200 ppm [4] | pest or weed control at 200 ppm [5] | inhibition of growth at 200 ppm [6] | inhibition of growth at 200 ppm [8]

COc1ccnc(C(=O)N[C@@H](C)C(=O)OC(C)C(C)(C)c2ccc(F)cc2)c1O (stereo partly drawn) [I.j.001, [2-(4-fluorophenyl)-1,2-dimethyl-propyl] (2S)-2-[(3-hydroxy-4-methoxy-pyridine-2-carbonyl)-amino]propanoate]
≥ 80%: inhibition of growth at 200 ppm [2] | inhibition of growth at 200 ppm [3] | inhibition of growth at 200 ppm [4] | pest or weed control at 200 ppm [5] | inhibition of growth at 200 ppm [6] | inhibition of growth at 200 ppm [8]

COc1ccnc(C(=O)N[C@@H](C)C(=O)OC(C)C2(c3ccc(F)cc3)CC2c2ccccc2)c1O (stereo partly drawn) [I.j.010, 1-[1-(4-fluorophenyl)-2-phenyl-cyclopropyl]-ethyl (2S)-2-[(3-hydroxy-4-methoxy-pyridine-2-carbonyl)-amino]propanoate]
≥ 80%: inhibition of growth at 200 ppm [3] | pest or weed control at 200 ppm [5] | inhibition of growth at 200 ppm [6] | inhibition of growth at 200 ppm [8]

COc1ccnc(C(=O)N[C@@H](C)C(=O)OC(C)C2(c3ccc(F)cc3)CC2c2ccc(F)cc2)c1O (stereo partly drawn) [I.j.011, 1-[1,2-bis(4-fluoro-phenyl)cyclopropyl]-ethyl (2S)-2-[(3-hydroxy-4-methoxy-pyridine-2-carbonyl)-amino]propanoate]
≥ 80%: inhibition of growth at 200 ppm [3] | inhibition of growth at 200 ppm [4] | pest or weed control at 200 ppm [5] | inhibition of growth at 200 ppm [6] | inhibition of growth at 200 ppm [8]

COc1ccnc(C(=O)N[C@@H](C)C(=O)OC(C)C2(c3ccc(Cl)cc3)CC2)c1O (stereo partly drawn) [I.k.006, 1-[1-(4-chlorophenyl)-cyclopropyl]ethyl (2S)-2-[(3-hydroxy-4-methoxy-pyridine-2-carbonyl)amino]propanoate]
≥ 80%: pest or weed control at 200 ppm [1] | inhibition of growth at 200 ppm [2] | inhibition of growth at 200 ppm [3] | inhibition of growth at 200 ppm [4] | pest or weed control at 200 ppm [5] | inhibition of growth at 200 ppm [6]

COc1ccnc(C(=O)N[C@@H](C)C(=O)OC(C)C2(c3ccc(Cl)cc3)CCCC2)c1O (stereo partly drawn) [I.k.014, 1-[1-(4-chlorophenyl)-cyclopentyl]ethyl (2S)-2-[(3-hydroxy-4-methoxy-pyridine-2-carbonyl)amino]propanoate]
≥ 80%: pest or weed control at 200 ppm [7] | inhibition of growth at 200 ppm [2] | inhibition of growth at 200 ppm [3] | inhibition of growth at 200 ppm [4] | pest or weed control at 200 ppm [5] | inhibition of growth at 200 ppm [6] | inhibition of growth at 200 ppm [8]

COc1ccnc(C(=O)N[C@@H](C)C(=O)OC(C)C2(c3ccc(Br)cc3)CCC2)c1O (stereo partly drawn) [I.m.012, 1-[1-(4-bromophenyl)-cyclobutyl]ethyl (2S)-2-[(3-hydroxy-4-methoxy-pyridine-2-carbonyl)amino]propanoate]
≥ 80%: pest or weed control at 200 ppm [7] | inhibition of growth at 200 ppm [2] | inhibition of growth at 200 ppm [3] | inhibition of growth at 200 ppm [4] | pest or weed control at 200 ppm [5] | inhibition of growth at 200 ppm [6] | inhibition of growth at 200 ppm [8]

COc1ccnc(C(=O)N[C@@H](C)C(=O)OC(C)C2(c3ccc(OC(F)(F)F)cc3)CC2)c1O (stereo partly drawn) [I.q.006, 1-[1-[4-(trifluoro-methoxy)phenyl]cyclo-propyl]ethyl (2S)-2-[(3-hydroxy-4-methoxy-pyridine-2-carbonyl)amino]propanoate]
≥ 80%: pest or weed control at 200 ppm [7] | inhibition of growth at 200 ppm [2] | inhibition of growth at 200 ppm [3] | inhibition of growth at 200 ppm [4] | pest or weed control at 200 ppm [5] | inhibition of growth at 200 ppm [6] | inhibition of growth at 200 ppm [8]

COc1ccnc(C(=O)N[C@@H](C)C(=O)OC(C)C2(c3ccc(Cl)c(Cl)c3)CC2)c1O (stereo partly drawn) [I.t.006, 1-[1-(3,4-dichloro-phenyl)cyclopropyl]-ethyl (2S)-2-[(3-hydroxy-4-methoxy-pyridine-2-carbonyl)-amino]propanoate]
≥ 80%: pest or weed control at 200 ppm [7] | inhibition of growth at 200 ppm [2] | inhibition of growth at 200 ppm [3] | inhibition of growth at 200 ppm [4] | pest or weed control at 200 ppm [5] | inhibition of growth at 200 ppm [6] | inhibition of growth at 200 ppm [8]

CCOc1ccc(C2(C(C)OC(=O)[C@H](C)NC(=O)c3nccc(OC)c3O)CC2(F)F)cc1 (stereo partly drawn) [I.u.007, 1-[1-(4-ethoxyphenyl)-2,2-difluorocyclopropyl]-ethyl (2S)-2-[(3-hydroxy-4-methoxy-pyridine-2-carbonyl)amino]propanoate]
≥ 80%: pest or weed control at 200 ppm [7] | inhibition of growth at 200 ppm [2] | inhibition of growth at 200 ppm [3] | inhibition of growth at 200 ppm [4] | pest or weed control at 200 ppm [5] | inhibition of growth at 200 ppm [8]

COc1ccnc(C(=O)N[C@@H](C)C(=O)OC(C)C2(c3cccc4ccccc34)CC2)c1O (stereo partly drawn) [I.v.006, 1-[1-(1-naphthyl)cyclo-propyl]ethyl (2S)-2-[(3-hydroxy-4-methoxy-pyridine-2-carbonyl)-amino]propanoate]
≥ 80%: pest or weed control at 200 ppm [1] | inhibition of growth at 200 ppm [3] | inhibition of growth at 200 ppm [4] | pest or weed control at 200 ppm [5] | inhibition of growth at 200 ppm [6] | inhibition of growth at 200 ppm [8]

COc1ccnc(C(=O)N[C@@H](C)C(=O)OC(C)C2(c3cccc4ccccc34)CC2c2ccccc2)c1O (stereo partly drawn) [I.v.010, 1-[1-(1-naphthyl)-2-phenyl-cyclopropyl]-ethyl (2S)-2-[(3-hydroxy-4-methoxy-pyridine-2-carbonyl)-amino]propanoate]
≥ 80%: inhibition of growth at 200 ppm [3] | pest or weed control at 200 ppm [5] | inhibition of growth at 200 ppm [6] | inhibition of growth at 200 ppm [8]

COc1ccnc(C(=O)N[C@@H](C)C(=O)OC(C)C2(c3cccc4ccccc34)CC2c2ccc(F)cc2)c1O (stereo partly drawn) [I.v.011, 1-[2-(4-fluorophenyl)-1-(1-naphthyl)cyclo-propyl]ethyl (2S)-2-[(3-hydroxy-4-methoxy-pyridine-2-carbonyl)amino]-propanoate]
≥ 80%: inhibition of growth at 200 ppm [3] | pest or weed control at 200 ppm [5] | inhibition of growth at 200 ppm [6] | inhibition of growth at 200 ppm [8]
